Patent JP2008280350A, “ナリンゲニンカルコンを有効成分とするヒスタミン遊離抑制剤又はロイコトリエン遊離抑制剤を含有する医薬品、飲食品又は化粧品” (Kikkoman Corp, priority 2000, dated 2001)
In brackets after ≈: the same amount, converted by molar mass. Like-named read-outs stand apart in the source and are kept apart here.

What was measured:
[1] = tested on: cell suspension prepared as in Example 2 (rat mast cells) [ラット肥満細胞]; test: Cytotoxicity test (trypan blue cell viability); assay type: cell-based; conditions: 37°C, 0, 10, 20, 60, 120 min
[2] = tested on: rat macrophages [ラットマクロファージ]; test: Leukotriene B4 release inhibition from rat macrophages (opsonized zymosan induced); assay type: cell-based; conditions: sample added 30 min before zymosan, LTB4 by ELISA (Table 2)
rat mast cells [ラット肥満細胞] = test: Histamine release inhibition from rat mast cells (compound 48/80 induced); assay type: cell-based; conditions: for IC50: Rattus norvegicus, Mast cell, 10 min, read-out: IC50 (50% inhibition rate), histamine release
[3] = tested on: mouse ear edema model [マウス耳介浮腫モデル]; test: Anaphylaxis inhibition in mouse ear edema model; assay type: in vivo; conditions: C3H/Hecrj mice, female; oral; 0.8, 0.16, 0.032, 0.0064 mg/kg; 6 doses over 5 days; anti-TNP-IgE, picryl chloride (Fig. 4)

Compound	cytotoxicity (cell viability, number of viable cells) [1]	leukotriene release inhibitory activity [2]	IC50 (rat mast cells [ラット肥満細胞]; compound 48/80 (5 μg/ml) as inducer, 37°C, sample solutions 25-250 μg/ml)	histamine release inhibitory activity (in words) (rat mast cells [ラット肥満細胞]; compound 48/80 as inducer, compared with ketotifen fumarate (Table 1))	histamine release inhibitory activity relative to ketotifen fumarate (fold) (rat mast cells [ラット肥満細胞]; from IC50 values, versus ketotifen fumarate)	anaphylaxis inhibitory activity (ear edema) [3]	IC50 (rat mast cells [ラット肥満細胞])
O=C(/C=C/c1ccc(O)cc1)c1c(O)cc(O)cc1O [ナリンゲニンカルコン, 2’4’6’4’−Tetrahydroxychalcone]	細胞毒性は見られなかった	用量依存的に、ロイコトリエン遊離抑制活性を示した	~70 µg/mL (≈ 257 µM)	公知のヒスタミン遊離抑制剤であるフマル酸ケトチフェンよりも強い、ヒスタミン遊離抑制活性を示した	~3.5 倍 (fold)	容量依存的なアナフィラキシー抑制活性を示した	–
CN1CCC(=C2c3ccccc3CC(=O)c3sccc32)CC1 [フマル酸ケトチフェン, reference compound]	–	–	–	–	–	–	~250 µg/mL (≈ 808 µM)
